Patent US10752900B2, “Oligonucleotides for modulating gene expression and uses thereof” (BIOGENERA S.P.A., priority 2012, dated 2020)
In the oligonucleotide strings, read from the 5' end, every base follows the letter of its sugar. An asterisk marks phosphorothioate; unmarked linkages are phosphodiester. Other units and linkages are bracketed, terminal groups are in braces. A string of capitals states the bases alone. d = 2'-deoxy (DNA)

Key:
[1] = tested on: rabdomyosarcoma cells (RH30); assay: Cellular proliferation assay (ATP-Lite), RH30 cells; assay type: cell-based, human
Method: For the purpose of assessing the gene modulation ability of the oligonucleotides of the present invention, the effect of their administration on cell viability was determined. For this purpose 5×10^3 cells per well were seeded into 96-well cell culture plates (experiments conducted in triplicate) with 100 μl of OPTI-MEM (GIBCO BRL) medium containing 4% FBS and 2 mM of L-glutammine. The PNA oligonucleotides were administered at different concentrations (1 μM-2.5 μM-5 μM-10 μM) in order to observe a dose-effect relationship. As regards all the other oligonucleotides, the concentrations at which they administered are listed in the paragraph: The viability of the treated cells was determined at 48, 72, 96 and 168 hours after treatment. Cell viability was assessed by means of an ATP-Lite assay (Luminescence ATP Detection Assay System, PerkinElmer) and is reported as the ratio between the average signal of the treated wells compared to the average value of the wells of untreated control cells. The cells were processed following the instructions provided with the kit. The assays were performed on the same cell lines used to determine the levels of the MYCN gene messenger and listed in the paragraph: Treatments with Oligonucleotides-QT-PCR. The PNAs having SEQ ID NO: 1-12 were also tested on different cell lines which overexpress MYCN (Kelly, SKNBE2c, RH30, […] 1 and H69). The results are shown in Table 6 and confirm the selectivity and specificity of the inhibition effect of the PNAs on the product of protein translation of the MYCN gene. Chimeric oligonucleotides comprising DNA monomers and LNA monomers and having the MYCN gene as their target were tested in vitro on alveolar rabdomyosarcoma cells (RH30). […] The antisense oligonucleotides designed and synthesized by the Applicant according to the parameters described in the present invention were analyzed in vitro on rabdomyosarcoma cells (RH30).

MYCN gene = assay: QT-PCR, MYCN mRNA in RH30 cells; assay type: cell-based, human
Method: For the purpose of assessing the ability of the oligonucleotides of the present invention to modulate the expression of the target genes, their ability to reduce the quantity of messenger RNA was analyzed using the Real-Time PCR technique. For this purpose, use was made of 24-well plates, which were seeded with 5.0×10^4 cells with 0.3 ml of OPTI-MEM (GIBCO BRL) medium, 4% FBS and 2 mM L-glutammine (experiments in triplicate) per well. The cells were incubated for 24 hours at 37° C., in an atmosphere containing 5% CO2 to permit adherence to the base of the wells. Each oligonucleotide analyzed, except for the PNA oligonucleotides, was incubated beforehand with 2 μl of Lipofectamine 2000 (Invitrogen), with 0.3 mL of serum-free OPTI-MEM (GIBCO BRL) medium. For each well, the oligonucleotides were analyzed at the following final concentrations: • the antisense oligonucleotides siRNA and siRNA gapmer (i.e. the oligonucleotides containing one or more monomers of chemically modified nucleic acids at the 3' or 5' end, while in the central portion they have monomers of nucleic acids that have not been modified or have been modified at the level of the phosphodiester bond as a phosphorothioate bond) were used at 200 nM; • the antisense oligonucleotides containing phosphorothioate DNA monomers, the RNA antigene oligonucleotides (agRNA) and the oligonucleotides containing DNA monomers and LNA monomers were used at 10 μM; • the morpholino oligonucleotides were used at a concentration of 1 μM, and • the PNA oligonucleotides were administered at a concentration of 1 μM. The cells were treated with the oligonucleotides, adding FBS up to 4% 6 hours after administration of the same. After 24 hours the total RNA was extracted from each well and purified using the RNeasy Mini Kit (QIAGEN). Assays were performed on 8 cell lines obtained from 5 different human tumours which are correlated with MYCN expression, i.e.: • as a neuroblastoma model use was made of the cell lines Kelly, IMR-32 (where the MYCN gene is amplified and superexpressed) and SKNBE2c and LAN1 (where the MYCN gene is amplified and superexpressed and the p53 gene is mutated); • as a rabdomiosarcoma model use was made of the cell line RH30, where the MYCN gene is amplified and superexpressed; • as a Wilms' tumour model use was made of the cell line WiT49, where the MYCN gene is amplified and superexpressed; • as a retinoblastoma model use was made of the cell line Y79, where the MYCN gene is amplified and superexpressed; and • as a model of small cell lung cancer use was made of the cell line H69 where the MYCN gene is amplified and superexpressed. As a control, use was made of the same cell lines as listed above treated with sterile water instead of oligonucleotides. Each RNA sample was quantified (in duplicate) using a NanoDrop ND-1000 spectrophotometer (NanoDrop Technologies). The first strand of cDNA was produced using the cDNA Synthesis Kit for RT-PCR (Roche). For the cDNA synthesis reaction a total of 1 μg of RNA was used. For the real-time PCR, 10 ng of cDNA in a final volume of 20 μl was used with SYBR Green Master Mix 2× (Applied Biosystems) (3 identical experiments were conducted in triplicate). Two housekeeping genes were used as positive controls: GAPDH and beta-actin (ACTB). The conditions of the QT-PCR reaction were: 10 min at 95° C., 20 sec at 95° C., and 30 sec at 60° C., for 50 cycles. The PNAs having SEQ ID NO: 1-12 were also tested on different cell lines which overexpress MYCN (Kelly, SKNBE2c, RH30, […] 1 and H69). The results are shown in Table 6 and confirm the selectivity and specificity of the inhibition effect of the PNAs on the product of protein translation of the MYCN gene. Chimeric oligonucleotides comprising DNA monomers and LNA monomers and having the MYCN gene as their target were tested in vitro on alveolar rabdomyosarcoma cells (RH30). […]

[2] = Table 9, siRNA and siRNA gapmer used at 200 nM
[3] = Table 9, siRNA and siRNA gapmer used at 200 nM with Lipofectamine 2000
[4] = Table 9, phosphorothioate DNA antisense used at 10 μM
[5] = Table 9, phosphorothioate DNA antisense used at 10 μM with Lipofectamine 2000

Substance	Cell Prolif. (%) [1, 2] [%]	mRNA inhibition (%) (MYCN gene; [3])	Cell Prolif. (%) [1, 4] [%]	mRNA inhibition (%) (MYCN gene; [5])
SEQ ID NO: 27: double-stranded siRNA against MYCN, sense GAUGAUGAAGAGGAAGAUG, antisense SEQ ID NO: 58 (antisense CAUCUUCCUCUUCAUCAUC; listed as RNA, chemistry not given here)	43	70	–	–
SEQ ID NO: 28: double-stranded siRNA against MYCN, sense UGAUGAAGAGGAAGAUGAA, antisense SEQ ID NO: 59 (antisense UUCAUCUUCCUCUUCAUCA; listed as RNA, chemistry not given here)	35	78	–	–
SEQ ID NO: 29: double-stranded siRNA against MYCN, sense GAGGAAGAUGAAGAGGAAG, antisense SEQ ID NO: 60 (antisense CUUCCUCUUCAUCUUCCUC; listed as RNA, chemistry not given here)	28	85	–	–
SEQ ID NO: 30: double-stranded siRNA against MYCN, sense GGAAGAUGAAGAGGAAGAA, antisense SEQ ID NO: 61 (antisense UUCUUCCUCUUCAUCUUCC; listed as RNA, chemistry not given here)	30	81	–	–
SEQ ID NO: 31: phosphorothioate DNA antisense oligonucleotide CGTGGAGCAGCTCGGCAT against MYCN (antisense dC*dG*dT*dG*dG*dA*dG*dC*dA*dG*dC*dT*dC*dG*dG*dC*dA*dT)	–	–	73	34
SEQ ID NO: 32: phosphorothioate DNA antisense oligonucleotide CAGGGTGTCCTCTCCGGA against MYCN (antisense dC*dA*dG*dG*dG*dT*dG*dT*dC*dC*dT*dC*dT*dC*dC*dG*dG*dA)	–	–	65	45
SEQ ID NO: 33: double-stranded chimeric RNA / 2′O-Methyl siRNA against MYCN, sense GAGGAAGAUGAAGAGGAAGTT, antisense SEQ ID NO: 62 (antisense CUUCCUCUUCAUCUUCCUCTT; RNA with some 2'-O-methyl monomers, positions not given here)	85	13	–	–
SEQ ID NO: 34: double-stranded chimeric RNA / 2′-Fluoro siRNA against MYCN, sense CAGGAAGAUGAAGAGGAAGUU, antisense SEQ ID NO: 63 (antisense GUUCCUCUUCAUCUUCCUCUU; RNA with some 2'-fluoro monomers, positions not given here)	52	59	–	–
SEQ ID NO: 35: double-stranded chimeric RNA / LNA siRNA against MYCN, sense GAGGAAGAUGAAGAGGAAGTT, antisense SEQ ID NO: 64 (antisense CUUCCUCUUCAUCUUCCUCTT; RNA with some LNA monomers, positions not given here)	68	34	–	–
SEQ ID NO: 36: double-stranded chimeric RNA / arabinoside RNA siRNA against MYCN, sense CAGGAAGAUGAAGAGGAAGAA, antisense SEQ ID NO: 65 (antisense GUUCCUCUUCAUCUUCCUCAA; arabinoside modifications, further chemistry not given here)	35	69	–	–
